Assay results: the CheMixHub viscosity set
Several values for one entry are separate records, joined by “and”; a condition that tells them apart may be missing. Identical values can stand only once.

Experiment: xn = mol fraction of the nth substance listed

CCCCCCBr + C=C(C)C(=O)OC
303.15 K, 101 kPa
Conditions | viscosity [mPa·s]
x2 = 0.1439 | 0.8087
x2 = 0.2632 | 0.7611
x2 = 0.4885 | 0.6895
x2 = 0.5904 | 0.6665
x2 = 0.6826 | 0.6354
x2 = 0.8513 | 0.5709
x2 = 0.9171 | 0.5459

c1ccc2c(c1)CCCC2 + COC(C)(C)C
303.15 K, 101 kPa
Conditions | viscosity [mPa·s]
x2 = 0.1289 | 1.534
x2 = 0.1851 | 1.432
x2 = 0.2839 | 1.253
x2 = 0.3506 | 1.136
x2 = 0.4458 | 0.983
x2 = 0.5017 | 0.903
x2 = 0.6257 | 0.737
x2 = 0.7392 | 0.606
x2 = 0.8539 | 0.486
x2 = 0.9246 | 0.37

CCOC(=O)CCl + CCCCCCCCCCCC
viscosity [mPa·s], 101.33 kPa
Conditions | x1 = 0.0961 | x1 = 0.2041 | x1 = 0.3012 | x1 = 0.4005 | x1 = 0.5029 | x1 = 0.6026 | x1 = 0.7029 | x1 = 0.804 | x1 = 0.9017
298.15 K | 1.25 | 1.197 | 1.159 | 1.14 | 1.127 | 1.116 | 1.105 | 1.101 | 1.099
303.15 K | 1.149 | 1.094 | 1.062 | 1.041 | 1.027 | 1.029 | 1.015 | 0.994 | 0.985
308.15 K | 1.054 | 1.019 | 0.979 | 0.96 | 0.946 | 0.94 | 0.93 | 0.927 | 0.929

CCCCNCCO + O
100 kPa, x2 = 0.62
Conditions | viscosity [mPa·s]
293.15 K | 29
303.15 K | 16.7
313.15 K | 10.3
323.15 K | 6.73

C[N+]1(CC2CO2)CCCC1=O.[Cl-] (configuration not stated) + CCC(=O)O
viscosity [mPa·s], 101 kPa
Conditions | 293.15 K | 298.15 K | 303.15 K | 308.15 K | 313.15 K
x1 = 0.0325 | 1.305 | 1.209 | 1.12 | 1.041 | 0.971
x1 = 0.0638 | 1.577 | 1.45 | 1.335 | 1.233 | 1.144
x1 = 0.1089 | 1.836 | 1.673 | 1.533 | 1.41 | 1.301
x1 = 0.205 | 2.333 | 2.104 | 1.909 | 1.738 | 1.592
x1 = 0.3036 | 2.544 | 2.285 | 2.064 | 1.876 | 1.712
x1 = 0.4076 | 2.537 | 2.278 | 2.059 | 1.87 | 1.707
x1 = 0.5049 | 2.288 | 2.069 | 1.882 | 1.718 | 1.578
x1 = 0.6079 | 2.088 | 1.895 | 1.729 | 1.586 | 1.462
x1 = 0.7037 | 1.935 | 1.763 | 1.613 | 1.485 | 1.372
x1 = 0.8065 | 1.808 | 1.65 | 1.516 | 1.399 | 1.296
x1 = 0.9028 | 1.643 | 1.507 | 1.39 | 1.286 | 1.194

CCCC[n+]1ccn(C)c1.N#C[C-](C#N)C#N + CCCCn1cc[n+](C)c1.O=S(=O)([N-]S(=O)(=O)C(F)(F)F)C(F)(F)F
Conditions | viscosity [mPa·s]
298.15 K, 100 kPa, x2 = 0.751 | 43.15

OC[C@@H](O)[C@@H](O)[C@H](O)[C@@H](O)CO + CC(=O)[O-].CC[n+]1ccn(C)c1
Conditions | viscosity [mPa·s]
313.15 K, 100 kPa, x1 = 0.5 | 572.5

CCCCOCCO + Cc1ccc(C)cc1
viscosity [mPa·s], 101 kPa
Conditions | 298.15 K | 308.15 K
x1 = 0.0541 | 0.566 | 0.647
x1 = 0.1518 | 0.625 | 0.725
x1 = 0.2496 | 0.695 | 0.817
x1 = 0.3502 | 0.784 | 0.933
x1 = 0.451 | 0.894 | 1.076
x1 = 0.5028 | 0.961 | 1.162
x1 = 0.5533 | 1.033 | 1.256
x1 = 0.6489 | 1.194 | 1.465
x1 = 0.7493 | 1.404 | 1.739
x1 = 0.8519 | 1.676 | 2.092
x1 = 0.9561 | 2.029 | 2.551

CCCCOCCO + ClC(Cl)Cl
298.15 K, 101.3 kPa
Conditions | viscosity [mPa·s]
x1 = 0.0035 | 0.536
x1 = 0.0216 | 0.555
x1 = 0.0344 | 0.57
x1 = 0.0767 | 0.628
x1 = 0.1259 | 0.703
x1 = 0.2281 | 0.901
x1 = 0.2903 | 1.042
x1 = 0.3627 | 1.235
x1 = 0.4472 | 1.494
x1 = 0.5049 | 1.659
x1 = 0.5823 | 1.894
x1 = 0.6772 | 2.175
x1 = 0.7828 | 2.429
x1 = 0.8296 | 2.525
x1 = 0.9123 | 2.702

CC(C)OCCO + CCCCCCCCCCO
viscosity [mPa·s], 101 kPa
Conditions | 298.15 K | 303.15 K | 308.15 K
x1 = 0.0501 | 11.21 | 9.204 | 7.728
x1 = 0.1066 | 10.53 | 8.634 | 7.235
x1 = 0.1507 | 10.01 | 8.194 | 6.853
x1 = 0.253 | 8.94 | 7.311 | 6.115
x1 = 0.3119 | 8.302 | 6.783 | 5.668
x1 = 0.3516 | 7.856 | 6.41 | 5.352
x1 = 0.4159 | 7.17 | 5.836 | 4.871
x1 = 0.5018 | 6.315 | 5.145 | 4.3
x1 = 0.6016 | 5.388 | 4.398 | 3.692
x1 = 0.7014 | 4.518 | 3.715 | 3.149
x1 = 0.8012 | 3.69 | 2.991 | 2.564
x1 = 0.854 | 3.267 | 2.661 | 2.308
x1 = 0.9003 | 2.873 | 2.385 | 2.097
x1 = 0.9507 | 2.516 | 2.166 | 1.948

CCNCCO + CCOCCOCCOCC
viscosity, 101.3 kPa
Conditions | x1 = 0.313 | x1 = 0.548 | x1 = 0.732 | x1 = 0.879 | x2 = 0.1906 | x2 = 0.3546 | x2 = 0.5618
293.15 K | 1.74 mPa·s | 2.601 mPa·s and 2.603 mPa·s | 4.275 mPa·s | 7.482 mPa·s | 5.481 mPa·s | 3.2 mPa·s | 2.028 mPa·s
303.15 K | 1.397 mPa·s | 2.007 mPa·s and 2.027 mPa·s | 3.137 mPa·s | 5.176 mPa·s | 3.902 mPa·s | 2.422 mPa·s | 1.604 mPa·s
313.15 K | 1.14 mPa·s | 1.584 mPa·s and 1.616 mPa·s | 2.372 mPa·s | 3.717 mPa·s | 2.88 mPa·s | 1.867 mPa·s | 1.291 mPa·s
323.15 K | 0.9463 mPa·s | 1.276 mPa·s and 1.317 mPa·s | 1.844 mPa·s | 2.764 mPa·s | 2.189 mPa·s | 1.478 mPa·s | 1.056 mPa·s
